Counter-ions that a name gives are not always drawn.
system: ATF4 pathway; experiment: ATF4 Cell Based Assay (ATF4 reporter assay, NanoLuc luciferase); settings: SH-SY5Y-ATF4-NanoLuc cells challenged with Thapsigargin for 14-18 hours; average of two or more experimental runs; read-out: average ATF4 pathway inhibitory activity (IC50)
Excerpt: The ATF4 reporter assay measures the effect of Thapsigargin induced cellular stress on ATF4 expression. For this reporter assay, a stable cell line was created by transfecting SH-SY5Y cells with a plasmid containing the NanoLuc® luciferase gene fused to the 5′-UTR of ATF4, under the control of the CMV promoter. The ATF4 5′-UTR contains two open reading frames which mediate the cellular stress-dependent translation of the reporter gene. Clones stably expressing the reporter construct were isolated and selected based on the luminescence response to thapsigargin and inhibition of this signal by test compounds. Briefly, SH-SY5Y-ATF4-NanoLuc cells were challenged with Thapsigargin for 14-18 hours to determine the stress effect with or without test compounds.
Cells were propagated in growth media consisting of 90% DMEM F12 (InVitrogen #11320-033), 10% Fetal Bovine Serum (Gibco #10438-026), 5 mM Glutamax (Gibco #35050-061), 5 mM Hepes, (Gibco #15630-080), and 0.5 mg/ml Geneticin (Gibco #10131-027). Cells were prepared for the assay by removing all media from cells, washing the plated cells with phosphate buffered saline, and detached by adding a solution comprised of 10% Tryple express solution (InVitrogen12604-021) and 90% enzyme-free cell dissociation buffer HANKS base (Gibco 13150-016). The trypsin was deactivated by adding assay media comprised of 90% phenol-red free DMEM F12 (InVitrogen, 11039), 10% Fetal Bovine Serum (Gibco #10438-026), (5 mM Glutamax (Gibco #35050-061), 5 mM Hepes, (Gibco #15630-080), and 0.5 mg/ml Geneticin (Gibco #10131-027). Suspended cells were spun down at 300 g for 5 min, the supernatant was removed and the cell pellet was suspended in warm media (30-37° C.) comprised as above but without 10% Fetal Bovine Serum to a concentration of 1e6 cells/ml.
Assay plates were prepared by adding 250 nL of compound stock solution in 100% DMSO to each well, followed by dispensing 20 microliters/well cell suspension to deliver 15-20 k cell/well. Cells were incubated for 1 hour at 37° C. […]
The measurement of luciferase produced by the ATF4 constructs was measured as follows. Aliquots of the Nano-Glo reagent (Nano-Glo® Luciferase Assay Substrate, Promega, N113, Nano-Glo® Luciferase Assay Buffer, Promega, N112 (parts of Nano-Glo® Luciferase Assay System, N1150) were brought to room temperature, the substrate and buffer were mixed according to manufacturer's instructions. The cell plates were equilibrated to room temperature. 25 microliters/well of the mixed Nano-Glo reagent were dispensed into assay wells and pulse spun to settle contents and the plate was sealed with film. The plates were incubated at room temperature for 1 hour before detecting luminescence on an EnVision® plate reader.

Compared with Cc1ccc(OCC(=O)NC23CC(NC(=O)COC4(C)CC4)(C2)C3)cc1 [Example 20, 2-(1-methylcyclopropoxy)-N-(3-(2-(p-tolyloxy)acetamido)bicyclo[1.1.1]pentan-1-yl)acetamide], O=C(COc1ccc(Cl)cc1)NC12CC(NC(=O)C3CCC3)(C1)C2 [Example 34, N-(3-(2-(4-chlorophenoxy)acetamido)bicyclo[1.1.1]pentan-1-yl)cyclobutanecarboxamide] is 1.9-fold lower in IC50: 6.32 µM for the first, 3.27 µM for the second.

O=C(COc1ccc(Cl)cc1)NC12CC(NC(=O)C3CCCO3)(C1)C2 (stereo not shown) [Example 32, N-(3-(2-(4-chlorophenoxy)acetamido)bicyclo[1.1.1]pentan-1-yl)tetrahydrofuranyl-2-carboxamide] and O=C(COc1ccc(Cl)cc1)NC12CC(NC(=O)C3CCCN3)(C1)C2 (stereo not shown) [Example 53, N-(3-(2-(4-chlorophenoxy)acetamido)bicyclo[1.1.1]pentan-1-yl)pyrrolidinyl-2-carboxamide hydrochloride] are within 1.5-fold of each other in IC50: 4.76 µM for the first, 3.36 µM for the second.
